We go through one compound from patent US20050256132A1, “Use of ER selective NF-kB inhibitors for the treatment of sepsis” (priority 2003, published 2005).

Where “and” joins values, the source holds several entries; their conditions need not be identical. Equal values may be shown once.

One series concerns Creatine Kinase. Put plainly: Creatine kinase expression in Ad5-wt-ERα infected HAECT-1 cells (Table 1). Type of series: cell-based, human. Conditions: relative to the maximal stimulation observed with E2. As for the experimental part: (§1) T-175 flasks of 100% confluent HAECT-1 cells (immortalized human aortic endothelial cells) were washed with 8 mL of HBSS (HEPES buffered saline solution) and infected for four hours with 6 mL of a 1:10 dilution of Ad5-wt-hERα virus (an adenovirus transfection vector that mediates CMV promoter driven expression of human ERα) in phenol red free Endothelial Cell Basal medium (Clonetics, San Diego Calif., Catalog # CC-3129) containing 0.25% bovine serum albumin (EBM-BSA). After four hours, cells were washed with EBM-BSA and incubated overnight in the same medium. Following overnight incubation, cells were washed with EBM-BSA and infected for 2 hours with 6 mL of a 1:10 dilution of Ad5-3x(NF-κB).Luc virus (Adenovirus luciferase expression vector driven by 3 repeats of the MHC NF-κb site 5′ to the thymidine kinase promoter) in EBM-BSA. […]
(§2) ERα infected HAECT-1 cells or control cells were thawed, diluted 42× in warm EBM-BSA, plated into 96-well plates at 0.1 mL/well and incubated for 4 hours at 34° C. […] Luciferase was determined on a Wallac Victor Luminometer (Gaithersburg, Md.) using 10 μL of lysate and mixing with 100 μL of Promega Luciferase Assay reagent. Creatine kinase was determined from the rate of increase in A340 following addition of 100 μL of CK assay reagent (Sigma, cat. No 47-10) to the remainder of the cell lysate. […]

For the next series, the system named is ER/NF-κB. Put plainly: ER/NF-κB luciferase reporter in Ad5-wt-ERα infected HAECT-1 cells (Table 1). Type of series: cell-based, human. Conditions: relative to the maximal inhibition observed with E2. As for the experimental part:
as §1, §2
(In general: Reporter assays use an easily measured gene product as a stand-in for the process of interest.)

The next series relates to Listeria monocytogenes. Put plainly: Murine Listeria model, cytokine response analysis. It is filed as in vivo, BALB/c mice. Conditions: 10^5 cells/animal iv, 24 hours after challenge, vs control. The method, then:
Corn oil and Tween-stabilized vehicle was used as the control. All other reagents used in the experiments were purchased commercially from Sigma (St. Louis, Mo.) except for the cytokine assays which were purchased from Biosource (Camarillo, Calif.). The cytokines were measured by enzyme-linked immunoassay according to the manufacturer's instructions. The limits of detection of each assay are as follows: tumor necrosis factor α—3 pg/ml, interleukin-6—3 pg/ml, interferon gamma—1 pg/ml, monocyte chemo attractant protein—9 pg/ml. Endotoxin values were measured using a quantitative turbidometric assay (LAL5000) (Associates of Cape Cod, Woods Hole, Mass.).
The listeria model of systemic infection in mice was performed as previously described (Opal S. M., et al., Shock 15(4):285-290, 2001). Compound 67 was administered orally via an orogastric tube to BALB/c mice in an increasing dose schedule of from 1.5 mg/kg to 50 mg/kg. The BALB/c mice were purchased from Charles River Laboratories (Wilmington, Mass.). […]
For the cytokine response analysis, a standard dose of 10^5 cells/animal was administered intravenously, and cytokine measures were performed 24 hours after the intravenous challenge. […] The LD50 was calculated by the method of Reed and Meuch (Opal S. M., et al., J Infect Dis 187:70-76, 2003.).

In the case of `COc1ccccc1[C@H](c1cccc2ccccc12)[C@@](C)(C#N)C(=O)N1CCC(c2cccc(C(F)(F)F)c2)CC1` [Example 67, (S,S)-3-(2-methoxyphenyl)-2-methyl-3-(1-naphthyl)-2-({4-[3-(trifluoromethyl)phenyl]piperidin-1-yl}carbonyl)propanenitrile], in the series with Creatine Kinase, the “Creatine Kinase Efficacy” value is 41% and 58%. Also, in the series on ER/NF-κB, the “ER/NFκB Efficacy” value is 100% and 86% and 90% and 92%. Further, the “cytokine levels (TNF, IL-6, MCP-1, interferon gamma) in bacteremic animals” value in the series with Listeria monocytogenes was “unchanged”.
